Measured values: patent publication US9458172B2, “Pyridinyl and pyrimidinyl sulfoxide and sulfone derivatives” (priority 2012, dated 2016)
Where two headings read alike, the source gives them in different places.

Key:
A2780 cells = assay: In-Vitro Cell Proliferation Assay (SRB); details: Homo sapiens, A2780, 72 h
Experimental: Assay 2: In-Vitro Cell Proliferation Assay
Assay Method. […] The compounds were then further diluted to 10 OX final concentration in culture media, whereupon 20 μL of each dilution was added to the plated cells with controls (e.g. DMSO and blank) to make a final volume of 200 μL. The final DMSO concentration in each well was 0.1%. The plates were then incubated for 72 h at 37° C. in a 5% CO2 incubator. The number of viable cells was then assessed using sulforhodamine B (SRB) assay. Cells were fixed at 4° C. for 1 h with the addition of 50 μL 30% trichloroacetic acid (TCA) to make a final concentration of 6% TCA. The plates were washed four times with H2O and allowed to dry for at least 1 h, whereupon 100 μL of a 4% SRB in 1% acetic acid solution was added to each well and incubated at rt for at least 30 min. The plates were then washed three times with 1% acetic acid, dried, and treated with 100 μL of 10 mM Tris-Base solution. The plates were then read in a microplate reader at an absorbance of 570 nm. Background was generated on a separate plate with media only.
Determination of IC50 Values. First, the signals from the background plate were averaged, then the background was subtracted from the test plates.
The specificity of the compounds were determined via cell viability assay in the presence of the compound and either NAM or NMN Percent inhibitions were determined using the method given above.

NAMPT = NAMPT (Homo sapiens (Human), UniProt P43490); assay: Biochemical Inhibition Assay (NAMPT enzymatic reaction, NMN quantified by mass spectrometry); details: 33 nM recombinant His-tagged NAMPT, 1 μM NAM, 30 min at rt
Chain of NAMPT (P43490 whole entry): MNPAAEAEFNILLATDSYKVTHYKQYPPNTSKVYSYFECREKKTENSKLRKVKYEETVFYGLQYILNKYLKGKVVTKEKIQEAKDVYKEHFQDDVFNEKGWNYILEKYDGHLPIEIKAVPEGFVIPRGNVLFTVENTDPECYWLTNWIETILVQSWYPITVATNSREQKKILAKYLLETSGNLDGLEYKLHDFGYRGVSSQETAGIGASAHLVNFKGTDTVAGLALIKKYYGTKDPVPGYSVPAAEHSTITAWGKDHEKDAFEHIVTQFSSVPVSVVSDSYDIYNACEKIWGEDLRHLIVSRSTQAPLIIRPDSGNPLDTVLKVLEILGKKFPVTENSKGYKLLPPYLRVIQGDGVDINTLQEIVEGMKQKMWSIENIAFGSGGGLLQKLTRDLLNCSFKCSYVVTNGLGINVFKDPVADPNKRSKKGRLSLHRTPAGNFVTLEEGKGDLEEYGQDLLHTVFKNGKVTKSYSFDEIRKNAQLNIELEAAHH
Experimental: Assay 1: Biochemical Inhibition Assay
NAMPT protein purification. Recombinant His-tagged NAMPT was produced in E. coli cells, purified over a Ni column, and further purified over a size-exclusion column by XTAL Biostructures.
The NAMPT Enzymatic Reaction. The NAMPT enzymatic reactions were carried out in Buffer A (50 mM Hepes pH 7.5, 50 mM NaCl, 5 mM MgCl2, and 1 mM THP) in 96-well V-bottom plates. The compound titrations were performed in a separate dilution plate by serially diluting the compounds in DMSO to make a 100× stock. […] The compound and enzyme mixture was incubated for 15 min at rt, then 10 μL of 10× substrate and co-factors in Buffer A were added to the test well to make a final concentration of 1 μM NAM, […] 5-Phospho-D-ribose 1-diphosphate (PRPP), and 2.5 mM Adenosine 5′-triphosphate (ATP). The reaction was allowed to proceed for 30 min at rt, then was quenched with the addition of 11 μL of a solution of formic acid and L-Cystathionine to make a final concentration of 1% formic acid and 10 μM L-Cystathionine. Background and signal strength was determined by addition (or non-addition) of a serial dilution of NMN to a pre-quenched enzyme and cofactor mix.
Quantification of NMN. A mass spectrometry-based assay was used to measure the NAMPT reaction product, β-nicotinamide mononucleotide (NMN), and the internal control (L-Cystathionine). NMN and L-Cystathionine were detected using the services of Biocius Lifesciences with the RapidFire system. In short, the NMN and L-Cystathionine were bound to a graphitic carbon cartridge in 0.1% formic acid, eluted in 30% acetonitrile buffer, and injected into a Sciex 4000 mass spectrometer. The components of the sample were ionized with electrospray ionization and the positive ions were detected. […] The fragments are quantified and the analyzed by the following method.
Determination of IC50 Values. First, the NMN signal was normalized to the L-Cystathionine signal by dividing the NMN signal by the L-Cystathionine signal for each well. The signal from the background wells were averaged and subtracted from the test plates.

[1] = read-out: Cell Proliferation (IC50)
[2] = read-out: Cell Proliferation (IC50), A2780 cells, 72 h, sulforhodamine B

SMILES	IC50 (A2780 cells; [1]) [nM]	IC50 (NAMPT) [nM]	IC50 (A2780 cells; [2]) [nM]
Cn1cc(S(=O)(=O)c2ccc(CNC(=O)c3cc4ccncc4s3)nc2)cn1 [Example 40, Thieno[2,3-c]pyridine-2-carboxylic acid [5-(1-methyl-1H-pyrazole-4-sulfonyl)-pyridin-2-ylmethyl]-amide]	2000	134	–
O=C(NCc1ccc(S(=O)(=O)c2ccc(N3CCOCC3)nc2)cn1)c1cnc2[nH]ncc2c1 [Example 41, 1H-Pyrazolo[3,4-b]pyridine-5-carboxylic acid (5-(6-morpholin-4-yl-pyridine-3-sulfonyl)-pyridin-2-ylmethyl]-amide]	7.2	19	–
O=C(NCc1ccc(S(=O)(=O)C2CCN(C3CCOCC3)CC2)cn1)c1cc2cnccc2[nH]1 [Example 42, 1H-Pyrrolo[3,2-c]pyridine-2-carboxylic acid {5-[1-(tetrahydro-pyran-4-yl)-piperidine-4-sulfonyl]-pyridin-2-ylmethyl)-amide]	86.3	249	–
CCCn1cc(S(=O)(=O)c2ccc(CNC(=O)c3ccc4nccn4c3)nc2)cn1 [Example 43, Imidazo[1,2-a]pyridine-6-carboxylic acid [5-(1-propyl-1H-pyrazole-4-sulfonyl)-pyridin-2-ylmethyl]-amide]	24.1	27.3	–
CC(C)n1cc(S(=O)(=O)c2ccc(CNC(=O)c3ccc4nccn4c3)nc2)cn1 [Example 44]	–	29.9	20
CN1CCN(c2ccc(S(=O)(=O)c3ccc(CNC(=O)c4ccc5nccn5c4)nc3)cn2)CC1 [Example 46, Imidazo[1,2-a]pyridine-6-carboxylic acid {5-[6-(4-methyl-piperazin-1-yl)-pyridine-3-sulfonyl]-pyridin-2-ylmethyl}-amide]	1.6	6.9	–
CN1CCN(c2ccc(S(=O)(=O)c3ccc(CNC(=O)c4cnc5nccn5c4)nc3)cn2)CC1 [Example 47, Imidazo[1,2-a]pyrimidine-6-carboxylic acid {5-[6-(4-methyl-piperazin-1-yl)-pyridine-3-sulfonyl]-pyridin-2-ylmethyl}-amide]	14.1	2.2	–
CN1CCN(c2ccc(S(=O)(=O)c3ccc(CNC(=O)c4cnc5nccn5c4)nc3)cc2)CC1 [Example 48, Imidazo[1,2-a]pyrimidine-6-carboxylic acid {5-[4-(4-methyl-piperazin-1-yl)-benzenesulfonyl]-pyridin-2-ylmethyl)-amide]	8.5	2.3	–
O=C(NCc1ccc(S(=O)(=O)c2cccc(C(F)(F)F)c2)cn1)N1Cc2ccncc2C1 [Example 49, 1,3-Dihydro-pyrrolo[3,4-c]pyridine-2-carboxylic acid [5-(3-trifluoromethyl-benzenesulfonyl)-pyridin-2-ylmethyl]-amide]	34.5	3.7	–
O=C(NCc1ccc(S(=O)(=O)c2cccc(OC(F)(F)F)c2)cn1)N1Cc2ccncc2C1 [Example 50, 1,3-Dihydro-pyrrolo[3,4-c]pyridine-2-carboxylic acid [5-(3-trifluoromethoxy-benzenesulfonyl)-pyridin-2-ylmethyl]-amide]	13.5	3.4	–
O=C(NCc1ccc(S(=O)(=O)C2CCOCC2)cn1)c1cc2ccncc2o1 [Example 51, Furo[2,3-c]pyridine-2-carboxylic acid [5-(tetrahydro-pyran-4-sulfonyl)-pyridin-2-ylmethyl]-amide]	301	170	–
O=C(NCc1ccc(S(=O)(=O)c2ccc(N3CCOCC3)nc2)cn1)c1cc2ccncc2o1 [Example 52, Furo[2,3-c]pyridine-2-carboxylic acid [5-(6-morpholin-4-yl-pyridine-3-sulfonyl)-pyridin-2-ylmethyl]-amide]	–	2	0.5
O=C(NCc1ccc(S(=O)(=O)C2CCOCC2)cn1)c1cc2ccncc2s1 [Example 53, Thieno[2,3-c]pyridine-2-carboxylic acid [5-(tetrahydro-pyran-4-sulfonyl)-pyridin-2-ylmethyl]-amide]	548	92.1	–
O=C(NCc1ccc(S(=O)(=O)c2ccc(N3CCOCC3)nc2)cn1)c1cc2ccncc2s1 [Example 54, Thieno[2,3-c]pyridine-2-carboxylic acid [5-(6-morpholin-4-yl-pyridine-3-sulfonyl)-pyridin-2-ylmethyl]-amide]	0.5	1.7	–
O=C(NCc1ccc(S(=O)(=O)C2CCN(C3COC3)CC2)cn1)c1cc2ccncc2s1 [Example 56, Thieno[2,3-c]pyridine-2-carboxylic acid [5-(1-oxetan-3-yl-piperidine-4-sulfonyl)-pyridin-2-ylmethyl]-amide]	15.1	25.9	–
O=C(NCc1ccc(S(=O)(=O)C2CCCCC2)cn1)N1Cc2ccncc2C1 [Example 59, 1,3-Dihydro-pyrrolo[3,4-c]pyridine-2-carboxylic acid (5-cyclohexanesulfonyl-pyridin-2-ylmethyl)-amide]	–	27.5	237
O=C(NCc1ccc(S(=O)(=O)C2CCOCC2)cn1)c1ccc2nccn2c1 [Example 60, Imidazo[1,2-a]pyridine-6-carboxylic acid [5-(tetrahydro-pyran-4-sulfonyl)-pyridin-2-ylmethyl]-amide]	1300	693	–
COc1ccc(S(=O)(=O)c2ccc(CNC(=O)c3ccc4nccn4c3)nc2)cc1OC [Example 65, Imidazo[1,2-a]pyridine-6-carboxylic acid [5-(3,4-dimethoxy-benzenesulfonyl)-pyridin-2-ylmethyl]-amide]	7	30.7	–
COc1ccc(S(=O)(=O)c2ccc(CNC(=O)c3cc4ccncc4o3)nc2)cc1OC [Example 66, Furo[2,3-c]pyridine-2-carboxylic acid [5-(3,4-dimethoxy-benzenesulfonyl)-pyridin-2-ylmethyl]-amide]	2.8	2.8	–
CN(C)c1ccc(S(=O)(=O)c2ccc(CNC(=O)c3cc4ccncc4o3)nc2)cn1 [Example 67, Furo[2,3-c]pyridine-2-carboxylic acid [5-(6-dimethylamino-pyridine-3-sulfonyl)-pyridin-2-ylmethyl]-amide]	1.9	2.6	–
CN(C)c1ccc(S(=O)(=O)c2ccc(CNC(=O)c3cnc4nccn4c3)nc2)cn1 [Example 69, Imidazo[1,2-a]pyrimidine-6-carboxylic acid (5-(6-dimethylamino-pyridine-3-sulfonyl)-pyridin-2-ylmethyl]-amide]	25.9	5.4	–
COc1ccc(S(=O)(=O)c2ccc(CNC(=O)c3cnc4[nH]ncc4c3)nc2)cc1OC [Example 70, 1H-Pyrazolo[3,4-b]pyridine-5-carboxylic acid [5-(3,4-dimethoxy-benzenesulfonyl)-pyridin-2-ylmethyl]-amide]	–	48.5	24.6
O=C(NCc1ccc(S(=O)(=O)c2cc(F)cc(F)c2)cn1)N1Cc2ccncc2C1 [Example 73, 1,3-Dihydro-pyrrolo[3,4-c]pyridine-2-carboxylic acid [5-(3,5-difluoro-benzenesulfonyl)-pyridin-2-ylmethyl]-amide]	76.5	17.3	–
CN(C)c1ncc(S(=O)(=O)c2ccc(CNC(=O)c3ccc4nccn4c3)nc2)s1 [Example 74, Imidazo[1,2-a]pyridine-6-carboxylic acid [5-(2-dimethylamino-thiazole-5-sulfonyl)-pyridin-2-ylmethyl]-amide]	2.4	7.8	–
